Reference: patent US20080124287A1, “Cosmetic composition having whitening effect comprising extract of pulsatilla radix as main ingredient” (priority 2002, published 2008)
Entries after “also recorded” stand apart in the source; their conditions may differ.

Legend:
Water solubility = type: physicochemical
Tyrosinase = assay: Measurement of inhibition action against tyrosinase; type: biochemical
Method: Tyrosinase was purchased from Sigma Company. The enzyme was dissolved in […]. Sodium phosphate buffer (0.1 M, pH 6.0), a substrate of enzyme and adjusted 1.6 mg/ml of concentration to obtain an enzyme solution. Sample was dissolved in sodium phosphate buffer and the undissolved residue was filtered out. 0.7 ml of the buffer, 0.2 ml of sample and 0.1 ml (15.7 unit/ml) of the enzyme solution were mixed and after 60 seconds, absorbance was measured at 475 nm by spectrophotometer.
By the following equation, inhibition ratio(%) of tyrosinase was calculated.
Inhibition ratio(%) of tyrosinase=[1−(S−B)/C]×100
wherein, • S: Test tube having enzyme and sample, • B: Test tube having sample, • C: Test tube having enzyme.

liver spots of women = assay: Whitening effect of preparation composed of ranunculin, deoxypodophyllotoxin and SB365 on clinical trial; type: in vivo, human; conditions: concluded from compositions with and without SB365
Method: Pharmaceutical composition: 10 mg of ranunculin, 50 mg of deoxypodophyllotoxin, and 15 mg of SB365 were mixed well together with the base (19 g) to obtain pharmaceutical composition and the composition was rubbed on the area of liver spots three times a day till the time of curing.
A composition from which SB365 which was not effective on tyrosinase was deleted was used. The composition were administered to five women (F, G, H, I, K) having liver spots.

SMILES	water solubility (Water solubility)	inhibition against tyrosinase (Tyrosinase; at 0.03 μg/ml)	inhibition of activity of tyrosinase (Tyrosinase; at 0.03/g/ml)	whitening effect in clinical trials (liver spots of women)	effect against tyrosinase (in words) (Tyrosinase)
COc1cc([C@@H]2c3cc4c(cc3C[C@H]3COC(=O)[C@@H]32)OCO4)cc(OC)c1OC [Deoxypodophyllotoxin]	very low and low	38%	38%		
CC1OC(OC2C(O[C@H]3CC[C@@]4(C)C(CC[C@]5(C)C4CC=C4C6CC(C)(C)CC[C@]6(C(=O)O)CC[C@]45C)[C@]3(C)CO)OCC(OC3OC(CO)C(O)C(O)C3O)C2O)C(O)C(O)C1O (stereo partly drawn) [SB365, 3-O-α-L-ramnopyranosyl(1→2)-[β-D-glucopyranosyl(1→4)]-α-L-arabinopyranoside]				have whitening effect; also recorded: excellent whitening effect	not effective; also recorded: did not inhibit; also recorded: no effect
